What was measured:
[1] = tested on: Solanum nigrum (SOLNI); assay: Post-emergence biological efficacy (Example 14); type: in vivo; conditions: Solanum nigrum, 312 h; post-emergence, 1,000 g/ha, after 13 days; read-out: Percentage damage SOLNI
Summary of the method: (§1)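 Herbicidal effect was assessed as percent plant damage 13 days after a foliar application of 250 or 1000 g/ha to 8-day-old glasshouse-grown plants, with the compound formulated in 50:50 acetone/water containing 0.5% Tween 20.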

[2] = tested on: Ipomea hederaceae (IPOHE); assay: Post-emergence biological efficacy (Example 14); type: in vivo; conditions: Ipomoea hederacea, 312 h; post-emergence, 1,000 g/ha, after 13 days; read-out: Percentage damage IPOHE
Summary of the method: as §1

[3] = tested on: Setaria faberi (SETFA); assay: Post-emergence biological efficacy (Example 14); type: in vivo; conditions: Setaria faberi, 312 h; post-emergence, 1,000 g/ha, after 13 days; read-out: Percentage damage SETFA
Summary of the method: as §1

[4] = tested on: Echinochloa crus-galli (ECHCG); assay: Post-emergence biological efficacy (Example 14); type: in vivo; conditions: Echinochloa crus-galli, 312 h; post-emergence, 1,000 g/ha, after 13 days; read-out: Percentage damage ECHCG
Summary of the method: as §1

[5] = tested on: Amaranthus retroflexus (AMARE); assay: Post-emergence biological efficacy (Example 14); type: in vivo; conditions: Amaranthus retroflexus, 312 h; post-emergence, 1,000 g/ha, after 13 days; read-out: Percentage damage AMARE
Summary of the method: as §1

[6] = tested on: Alopecurus myosuroides (ALOMY); assay: Post-emergence biological efficacy (Example 14); type: in vivo; conditions: Alopecurus myosuroides, 312 h; post-emergence, 1,000 g/ha, after 13 days; read-out: Percentage damage ALOMY
Summary of the method: as §1

[7] = tested on: Solanum nigrum (SOLNI); assay: Pre-emergence biological efficacy (Example 13); type: in vivo; conditions: Solanum nigrum, 312 h; pre-emergence, 1,000 g/ha, after 13 days; read-out: Percentage damage SOLNI
Summary of the method: (§2)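 Compound formulated in acetone/water (50:50) containing 0.5% Tween 20, diluted into an aqueous spray and applied at 250 or 1000 g/ha a day after sowing. Evaluation at 13 days: 100 = total damage, 0 = no damage.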

[8] = tested on: Ipomea hederaceae (IPOHE); assay: Pre-emergence biological efficacy (Example 13); type: in vivo; conditions: Ipomoea hederacea, 312 h; pre-emergence, 1,000 g/ha, after 13 days; read-out: Percentage damage IPOHE
Summary of the method: as §2

[9] = tested on: Setaria faberi (SETFA); assay: Pre-emergence biological efficacy (Example 13); type: in vivo; conditions: Setaria faberi, 312 h; pre-emergence, 1,000 g/ha, after 13 days; read-out: Percentage damage SETFA
Summary of the method: as §2

[10] = tested on: Echinochloa crus-galli (ECHCG); assay: Pre-emergence biological efficacy (Example 13); type: in vivo; conditions: Echinochloa crus-galli, 312 h; pre-emergence, 1,000 g/ha, after 13 days; read-out: Percentage damage ECHCG
Summary of the method: as §2

[11] = tested on: Amaranthus retroflexus (AMARE); assay: Pre-emergence biological efficacy (Example 13); type: in vivo; conditions: Amaranthus retroflexus, 312 h; pre-emergence, 1,000 g/ha, after 13 days; read-out: Percentage damage AMARE
Summary of the method: as §2

[12] = tested on: Alopecurus myosuroides (ALOMY); assay: Pre-emergence biological efficacy (Example 13); type: in vivo; conditions: Alopecurus myosuroides, 312 h; pre-emergence, 1,000 g/ha, after 13 days; read-out: Percentage damage ALOMY
Summary of the method: as §2

[13] = tested on: GALAP Galium aparine; assay: Post-emergence crop and weed test (Example 15); type: in vivo; conditions: 360 h, after 15 days, read-out: Percentage damage GALAP
Summary of the method: (§3)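 Glasshouse post-emergence trial; 0–100 damage rating taken 15 days after spraying 14-day-old plants, which were watered twice daily post-treatment.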

[14] = tested on: GLXMA Soybean; assay: Post-emergence crop and weed test (Example 15); type: in vivo; conditions: Glycine max, 360 h, after 15 days, read-out: Percentage damage GLXMA
Summary of the method: as §3

[15] = tested on: XANST Xanthium strumarium; assay: Post-emergence crop and weed test (Example 15); type: in vivo; conditions: 360 h, after 15 days, read-out: Percentage damage XANST
Summary of the method: as §3

[16] = tested on: VERPE Veronica persica; assay: Post-emergence crop and weed test (Example 15); type: in vivo; conditions: 360 h, after 15 days, read-out: Percentage damage VERPE
Summary of the method: as §3

[17] = tested on: POLCO Polygonum convolvulus; assay: Post-emergence crop and weed test (Example 15); type: in vivo; conditions: Fallopia convolvulus, 360 h, after 15 days, read-out: Percentage damage POLCO
Summary of the method: as §3

[18] = tested on: KCHSC Kochia scoparia; assay: Post-emergence crop and weed test (Example 15); type: in vivo; conditions: Bassia scoparia, 360 h, after 15 days, read-out: Percentage damage KCHSC
Summary of the method: as §3

[19] = tested on: IPOHE Ipomoea hederacea; assay: Post-emergence crop and weed test (Example 15); type: in vivo; conditions: 360 h, after 15 days, read-out: Percentage damage IPOHE
Summary of the method: as §3

[20] = tested on: SINAR Sinapis arvensis; assay: Post-emergence crop and weed test (Example 15); type: in vivo; conditions: Mutarda arvensis, 360 h, after 15 days, read-out: Percentage damage SINAR
Summary of the method: as §3

[21] = tested on: EPHHL Euphorbia heterophylla; assay: Post-emergence crop and weed test (Example 15); type: in vivo; conditions: 360 h, after 15 days, read-out: Percentage damage EPHHL
Summary of the method: as §3

[22] = tested on: AMARE Amaranthus retroflexus; assay: Post-emergence crop and weed test (Example 15); type: in vivo; conditions: 360 h, after 15 days, read-out: Percentage damage AMARE
Summary of the method: as §3

[23] = tested on: SIDSP Sida spinosa; assay: Post-emergence crop and weed test (Example 15); type: in vivo; conditions: 360 h, after 15 days, read-out: Percentage damage SIDSP
Summary of the method: as §3

[24] = tested on: ABUTH Abutilon theophrasti; assay: Post-emergence crop and weed test (Example 15); type: in vivo; conditions: 360 h, after 15 days, read-out: Percentage damage ABUTH
Summary of the method: as §3

[25] = tested on: CHEAL Chenopodium album; assay: Post-emergence crop and weed test (Example 15); type: in vivo; conditions: 360 h, after 15 days, read-out: Percentage damage CHEAL
Summary of the method: as §3

C=Cc1c(NCc2ccco2)nc(-c2ccc(Cl)c(OC)c2F)nc1C(=O)OC [Compound 6, 2-(4-chloro-2-fluoro-3-methoxyphenyl)-5-ethenyl-4-(furan-2-ylmethylamino)-6-methoxycarbonylpyrimidine] showed a pest or weed control at 1000 g/ha [1] of 90%, a pest or weed control at 1000 g/ha [2] of 80% and a pest or weed control at 1000 g/ha [3] of 90%. The pest or weed control at 1000 g/ha [4] was 80%, the pest or weed control at 1000 g/ha [5] was 100% and the pest or weed control at 1000 g/ha [6] was 80%. It also gave a pest or weed control at 1000 g/ha [7] of 100%, a pest or weed control at 1000 g/ha [8] of 90% and a pest or weed control at 1000 g/ha [9] of 80%. For the same compound, the pest or weed control at 1000 g/ha [10] was 80%, the pest or weed control at 1000 g/ha [11] was 100% and the pest or weed control at 1000 g/ha [12] was 70%. It also gave a melting point of 100 to 102 °C, a pest or weed control at 125 g/ha ([13]; 125 g/ha) of 70% and a plant injury at 125 g/ha ([14]; 125 g/ha) of 10%. For the same compound, the pest or weed control at 125 g/ha ([15]; 125 g/ha) was 100%, the pest or weed control at 125 g/ha ([16]; 125 g/ha) was 70% and the pest or weed control at 125 g/ha ([17]; 125 g/ha) was 70%. It also gave a pest or weed control at 125 g/ha ([18]; 125 g/ha) of 60%, a pest or weed control at 125 g/ha ([19]; 125 g/ha) of 80% and a pest or weed control at 125 g/ha ([20]; 125 g/ha) of 60%. For the same compound, the pest or weed control at 125 g/ha ([21]; 125 g/ha) was 90%, the pest or weed control at 125 g/ha ([22]; 125 g/ha) was 100% and the pest or weed control at 125 g/ha ([23]; 125 g/ha) was 80%. For the same compound, the pest or weed control at 125 g/ha ([24]; 125 g/ha) was 80% and the pest or weed control at 125 g/ha ([25]; 125 g/ha) was 90%.
C=Cc1c(N)nc(-c2ccc(Cl)c(N(C)C)c2F)nc1C(=O)OC [Compound 1] showed a pest or weed control at 1000 g/ha [1] of 100%, a pest or weed control at 1000 g/ha [2] of 90% and a pest or weed control at 1000 g/ha [3] of 100%. It also gave a pest or weed control at 1000 g/ha [4] of 100%, a pest or weed control at 1000 g/ha [5] of 100% and a pest or weed control at 1000 g/ha [6] of 90%. It also gave a pest or weed control at 1000 g/ha [7] of 100%, a pest or weed control at 1000 g/ha [9] of 90% and a pest or weed control at 1000 g/ha [10] of 90%. For the same compound, the pest or weed control at 1000 g/ha [11] was 100%, the pest or weed control at 1000 g/ha [12] was 80% and the melting point was 136 to 137 °C. The pest or weed control at 30 g/ha ([13]; 30 g/ha) was 20%, the plant injury at 30 g/ha ([14]; 30 g/ha) was 0% and the pest or weed control at 30 g/ha ([15]; 30 g/ha) was 100%. It also gave a pest or weed control at 30 g/ha ([16]; 30 g/ha) of 80%, a pest or weed control at 30 g/ha ([17]; 30 g/ha) of 90% and a pest or weed control at 30 g/ha ([18]; 30 g/ha) of 80%. The pest or weed control at 30 g/ha ([19]; 30 g/ha) was 40%, the pest or weed control at 30 g/ha ([20]; 30 g/ha) was 10% and the pest or weed control at 30 g/ha ([21]; 30 g/ha) was 90%. It also gave a pest or weed control at 30 g/ha ([22]; 30 g/ha) of 100%, a pest or weed control at 30 g/ha ([23]; 30 g/ha) of 60% and a pest or weed control at 30 g/ha ([24]; 30 g/ha) of 90%. It also gave a pest or weed control at 30 g/ha ([25]; 30 g/ha) of 90%.

From patent US20120115724A1, “METHOD OF CONTROLLING UNDESIRED VEGETATION” (SYNGENTA CROP PROTECTION LLC, priority 2009, published 2012)
